Test results as given in patent US10149809B2, “Skin aging inhibitor and concentrate of resveratrol 3-O-α-glucoside” (priority 2014, dated 2018).

Assays:
[1] = test system: hyaluronidase (from bovine testes); test: Hyaluronidase inhibitory effect; type: biochemical; conditions: pH 4.0, 37° C., 40 minutes
Description: The following sample solution, enzyme solution, and hyaluronic acid solution were prepared.
Resveratrol 3-O-α-glucoside was dissolved in a 0.2 M acetate buffer solution (pH 4.0) to a concentration of 0.025 or 0.1 wt %, and the resulting solution was used as a sample solution.
In 1.5 mL of a 0.2 M acetate buffer solution (pH 4.0), 7400 units of hyaluronidase (from bovine testes; Sigma-Aldrich Co. LLC.) were dissolved, and the resulting solution was used as the enzyme solution.
In 12.5 mL of a 0.2 M acetate buffer solution (pH 4.0), 10 mg of sodium hyaluronate (from crista galli; Wako Pure Chemical Industries, Ltd.) was dissolved, and the resulting solution was used as the hyaluronic acid solution.
Using each of the solutions prepared as above, the hyaluronidase inhibitory effect was evaluated in accordance with the following procedures. One-hundred microliters of the sample solution, 50 μL of the enzyme solution, and 200 μL of the hyaluronic acid solution were mixed and reacted at 37° C. for 40 minutes. Then, 100 μL each of a 0.4 M aqueous solution of sodium hydroxide and a 1 M aqueous solution of potassium borate were added to the mixture, and the reaction was stopped. […] The absorbance at 585 nm was subsequently measured. From the measured value of absorbance, the hyaluronidase inhibition ratio was determined in accordance with the equation shown below. […]

[2] = DPPH radical scavenging effect; type: biochemical
Description: Resveratrol 3-O-α-glucoside was dissolved in water to a concentration of 100, 250, 500, or 1000 μmol/L, and the resulting solution was used as a sample solution.
In 10 mL of ethanol, 2 mg of 2,2-diphenyl-1-picrylhydrazyl (Wako Pure Chemical Industries, Ltd.) was dissolved, and the resulting solution was used as the DPPH solution.
Using each of the solutions prepared as above, the DPPH radical scavenging effect was evaluated in accordance with the following procedures. One-hundred microliters of the sample solution, 500 μL, of the DPPH solution, 250 μL of a […] MES (2-morpholinoethanesulfonic acid) buffer, and 150 μL of distilled water were mixed and reacted at 30° C. for 30 minutes. The absorbance at 517 nm was subsequently measured. Further, distilled water (control solution) was used instead of the sample solution, and the absorbance at 517 nm was measured under the same conditions as described above. From the measured value of absorbance, the DPPH radical scavenging ratio was determined in accordance with the equation shown below. DPPH radical scavenging ratio (%)=(A−B)/A×100 [Equation 2]

[3] = SOD-like activity (SOD Test Wako kit); type: biochemical
Description: Resveratrol 3-O-α-glucoside was dissolved in a 15% ethanol solution to a concentration of 5, 10, or 20 mmol/L, and the resulting solution was used as a sample solution.
Using the sample solution prepared as above, the SOD-like activity was evaluated using an SOD measurement kit (SOD Test Wako; Wako Pure Chemical Industries, Ltd.).

[4] = test system: human skin model (EpiDerm EPI-200; MatTek); test: Skin cell activation effect, MTT survival rate in three-dimensional human skin model; type: cell-based; conditions: 100 μL, 72 hours, water control = 100%
Description: Using a three-dimensional human skin model, the skin cell activation effect of resveratrol 3-O-α-glucoside was investigated.
Resveratrol 3-O-α-glucoside was prepared into an aqueous solution having a concentration of 0.02, 0.05, 0.07, or 0.1 wt %, and the resulting solution was used as a sample solution. One-hundred microliters of the sample solution were administered to the horny layer side of the human skin model (EpiDerm EPI-200; MatTek), and cultured in 5 mL of a special medium (EPI-100-ASY) at 37° C. for 72 hours. After the culture, the survival rate of cells in the skin model was measured using the MTT (Thiazolyl Blue Tetrazolium Bromide) method based on the manual, and a relative ratio of the survival rate (cell growth improvement rate; %) after the administration of each of the sample solutions was calculated, taking as 100% the survival rate of a control group to which water not containing resveratrol 3-O-α-glucoside was administered.

IL-1β gene = test: Anti-inflammatory effect: IL-1β gene expression after Poly I:C-induced inflammation; type: cell-based; conditions: normal human epidermal keratinocytes, Poly I:C 1 μg/mL 9 hours, then 0.001 wt % for 15 hours; control = 100%, comparative group (Poly I:C only) 1210
Description: Normal human epidermal keratinocytes were seeded into 12-well culture plates at 5×10^4 cells per well. As the medium, EpiLife KG-2 medium supplemented with insulin, the human […] growth factor (hEGF), hydrocortisone, anti-microbial agents, and bovine pituitary extract (BPE) was used (basal medium), and the cells were preincubated in 5% CO2 at 37° C. for 48 hours. Further, the cells were incubated for additional 48 hours in a medium obtained by removing hydrocortisone only from the basal medium (assay medium). Next, the medium was replaced with an inflammation-inducing medium obtained by supplementing the assay medium with Poly I:C (double strand of inosine ribonucleotide and cytidine ribonucleotide strands) to a concentration of 1 μg/mL, and the cells were cultured for 9 hours, thus preparing an inflammation model. […] After the culture, total RNA was extracted from the cells, and the level of expression of the proinflammatory cytokine IL-1β gene was quantified by real time PCR. […]
Taking as 100% the level of expression of the IL-1β gene for the control group, a relative ratio of the expression level of the IL-1β gene for each of the comparative group and the resveratrol 3-O-α-glucoside-supplemented group (IL-1β gene expression ratio, %) was calculated. […]

In the case of `OC[C@H]1O[C@H](Oc2cc(O)cc(C=Cc3ccc(O)cc3)c2)[C@H](O)[C@@H](O)[C@@H]1O` [Resveratrol 3-O-α-Glucoside, resveratrol 3-O-α-glucoside], the “Hyaluronidase Inhibition Ratio (%)” value ([1]; 0.025 wt % in the sample solution) is reported as 7.6%, the “Hyaluronidase Inhibition Ratio (%)” value ([1]; 0.1 wt % in the sample solution) is reported as 20.6% and the “DPPH Radical Scavenging Ratio (%)” value ([2]; 100 μmol/L in the sample solution) is reported as 13%. The “DPPH Radical Scavenging Ratio (%)” value ([2]; 250 μmol/L in the sample solution) was 30%, the “DPPH Radical Scavenging Ratio (%)” value ([2]; 500 μmol/L in the sample solution) was 50% and the “DPPH Radical Scavenging Ratio (%)” value ([2]; 1000 μmol/L in the sample solution) was 75%. The “SOD-Like Activity (%)” value ([3]; 5 mmol/L in the sample solution (15% ethanol)) was 18%, the “SOD-Like Activity (%)” value ([3]; 10 mmol/L in the sample solution (15% ethanol)) was 35% and the “SOD-Like Activity (%)” value ([3]; 20 mmol/L in the sample solution (15% ethanol)) was 47%. The “Cell Growth Improvement Rate (%)” value ([4]; 0.02 wt % aqueous solution) was 106%, the “Cell Growth Improvement Rate (%)” value ([4]; 0.05 wt % aqueous solution) was 115% and the “Cell Growth Improvement Rate (%)” value ([4]; 0.07 wt % aqueous solution) was 116%. The “Cell Growth Improvement Rate (%)” value ([4]; 0.1 wt % aqueous solution) was 117% and the “IL-1β Gene Expression Ratio (%)” value (IL-1β gene) was 885%.
